Test results: PubChem BioAssay (NCI)
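In this assay, cells in 96-well plates receive the compound at five concentrations for 48 hours. Endpoints are linearly interpolated between the surrounding concentrations. Here, GI50 denotes the concentration required for 50% inhibition of growth. The concentration for full growth arrest is given as TGI.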

What follows are compounds tested on SK-MEL-28 melanoma (assay: NCI anticancer screen, dose series, 48 h).
In the case of `COCC(OC)C(CC=C(C#N)C#N)OC` (stereo unspecified), the TGI is reported as > 100 µM. For `On1c(-c2ccccc2)c(-c2ccccc2N2CCCC2)c2ccccc21`, the TGI was > 100 µM. `N#CC(C(=O)/C(=N\NC(N)=O)C(C#N)c1ccc(Cl)cc1)c1ccc(Cl)cc1` (stereo unspecified) was tested, and the TGI was > 100 µM. `CC(C)(C)c1cc(C(P(=O)(O)O)P(=O)(O)O)cc(C(C)(C)C)c1O` was tested, and the TGI was > 100 µM. In the case of `CC(C)C1=Cc2ccc3c(c2C(=O)C1=O)CCCC3(C)C`, the TGI is reported as 13.1 µM. `CSc1nc(SC)c2c(C#N)[nH]nc2n1` was tested, and the TGI was > 100 µM. `COc1c(O)c2c(=O)cc3c4c5c(cc(=O)c6c(O)c(OC)c(CC(C)O)c(c(c1CC(C)O)c24)c65)OCO3` (stereo unspecified) showed a TGI of 4.23 µM. With `COc1ccc(CCN(C)C2CCC(C#N)(c3ccc(OC)c(OC)c3)CC2)cc1OC` (stereo unspecified) the TGI was > 100 µM. Compound `CCOC(=O)c1nc2c(OC)nn(O)cc-2c1[N+](=O)[O-]` has a TGI of 29.9 µM. In the case of `C/C(CC(=O)Nc1ccc(C)c(C)c1)=N\N(c1ccccc1)c1ccccc1`, the TGI is reported as > 100 µM. `COC(=O)/C(=N\NC(N)=S)C(C(=O)OC)C(=O)C(=O)Nc1ccc(C)cc1` (stereo unspecified) was tested, and the TGI was > 100 µM. `O=C1CCC2(c3ccc(Cl)cc3)Nc3cc(Cl)ccc3N12` (stereo unspecified) gave a TGI of 25.3 µM. Work on `O=C(/C(=C/c1ccc(Cl)cc1)c1ccccc1)c1ccccc1` yielded a TGI of 30.6 µM. With `CC1(C)COC(c2cccc3c2C(=O)c2cccc(Cl)c2-3)=N1` the TGI was > 100 µM. `CN(C)CCC(/C=C/c1ccccc1)=N\Nc1ccccc1` showed a TGI of 3.54 µM. `CCOC(=O)c1ccc(/C(C)=N/NC(N)=S)cc1` was tested, and the TGI was > 100 µM. For `c1ccc2c(OCCSCCCCCCCCCCSCCOc3cccc4ccccc34)cccc2c1`, the TGI was > 100 µM. For `Cc1cc2c(=O)c3ccccc3[nH]c2c(C(N)=O)c1C`, the TGI was > 100 µM. With `CN1CCC(=O)/C(=C/c2ccccc2)C1` the TGI was 32.7 µM.

These compounds were tested on SK-MEL-5 melanoma (assay: NCI anticancer screen, dose series, 48 h).
In the case of `COC(=O)C(=Cc1cc(OC)c(OC)c(OC)c1-c1cc2c(cc1C1(C)OCCS1)OCO2)C(=O)OC` (stereo unspecified), the TGI is reported as > 100 µM. With `C#CC1/C(=C\C(=O)OC)CCCC1O` (stereo unspecified) the TGI was > 100 µM. With `CC12CCC(=O)C[C@H]1CCC(OC=O)C2Br` (stereo partly specified) the TGI was > 100 µM. With `COc1ccc(-c2nnc3n(C)c(=O)c4ccccc4n23)cc1N` the GI50 was 0.0598 µM and the TGI was > 100 µM. `COc1cnc2c(c1)C(=O)c1c-2n(CCCNC2=NCCS2)c(=O)c2cc([N+](=O)[O-])ccc12` was tested, and the GI50 was 0.0284 µM and the TGI was 0.157 µM. In the case of `COc1ccc(OCC(=O)O)c2c1CCCC2=O`, the TGI is reported as > 100 µM. In the case of `Cc1nc(Nc2ccc(Cl)cc2)sc1C(=O)NNC(=S)NN`, the TGI is reported as 32.9 µM. For `COc1ccc2c(c1OCC(=O)O)C(=O)C(CCC(=O)O)CC2` (stereo unspecified), the TGI was > 100 µM. `Cc1ccc2nc(/C(=C/c3ccc(/C=C(\NC(=O)c4ccccc4)c4nc5ccc(C)cc5[nH]4)c(C)c3)NC(=O)c3ccccc3)[nH]c2c1` gave a TGI of 33.5 µM. `Cc1nc(Nc2cccnc2)sc1C(=O)/C=C/c1ccc(F)cc1` was tested, and the GI50 was 3.64 µM and the TGI was 13.4 µM. `O=C(Nc1cccc(Cl)c1)C(=O)C(C(=O)c1ccc2ccccc2c1)C1OC(=O)c2ccccc21` (stereo unspecified) was tested, and the TGI was 30.3 µM. `CC1=Cc2cccc(C)c2C(=O)C1=O` gave a TGI of 10.7 µM. `Cc1ccc(C)c(NC(=O)c2cccc([N+](=O)[O-])c2O)c1` was tested, and the TGI was 25.2 µM. For `COCC(OC)C(CC=C(C#N)C#N)OC` (stereo unspecified), the TGI was > 100 µM. For `On1c(-c2ccccc2)c(-c2ccccc2N2CCCC2)c2ccccc21`, the TGI was > 100 µM. `N#CC(C(=O)/C(=N\NC(N)=O)C(C#N)c1ccc(Cl)cc1)c1ccc(Cl)cc1` (stereo unspecified) was tested, and the TGI was > 100 µM. `CC(C)(C)c1cc(C(P(=O)(O)O)P(=O)(O)O)cc(C(C)(C)C)c1O` was tested, and the TGI was > 100 µM. With `CC(C)C1=Cc2ccc3c(c2C(=O)C1=O)CCCC3(C)C` the TGI was 24.9 µM. For `CSc1nc(SC)c2c(C#N)[nH]nc2n1`, the TGI was > 100 µM. For `COc1c(O)c2c(=O)cc3c4c5c(cc(=O)c6c(O)c(OC)c(CC(C)O)c(c(c1CC(C)O)c24)c65)OCO3` (stereo unspecified), the TGI was 2.94 µM. `COc1ccc(CCN(C)C2CCC(C#N)(c3ccc(OC)c(OC)c3)CC2)cc1OC` (stereo unspecified) was tested, and the TGI was > 100 µM. For `C/C(CC(=O)Nc1ccc(C)c(C)c1)=N\N(c1ccccc1)c1ccccc1`, the TGI was > 100 µM. With `COC(=O)/C(=N\NC(N)=S)C(C(=O)OC)C(=O)C(=O)Nc1ccc(C)cc1` (stereo unspecified) the TGI was > 100 µM. With `O=C1CCC2(c3ccc(Cl)cc3)Nc3cc(Cl)ccc3N12` (stereo unspecified) the TGI was 25.2 µM. With `CC1(C)COC(c2cccc3c2C(=O)c2cccc(Cl)c2-3)=N1` the TGI was 73.4 µM. Compound `CN(C)CCC(/C=C/c1ccccc1)=N\Nc1ccccc1` has a TGI of 13.1 µM. `CCOC(=O)c1ccc(/C(C)=N/NC(N)=S)cc1` was tested, and the TGI was > 100 µM. For `c1ccc2c(OCCSCCCCCCCCCCSCCOc3cccc4ccccc34)cccc2c1`, the TGI was > 100 µM. In the case of `Cc1cc2c(=O)c3ccccc3[nH]c2c(C(N)=O)c1C`, the TGI is reported as > 100 µM. `CN1CCC(=O)/C(=C/c2ccccc2)C1` gave a TGI of 33.4 µM.

The compounds below were run on SNB-75 CNS (assay: NCI anticancer screen, dose series, 48 h).
`C#CC1/C(=C\C(=O)OC)CCCC1O` (stereo unspecified) was tested, and the TGI was > 100 µM. `CC12CCC(=O)C[C@H]1CCC(OC=O)C2Br` (stereo partly specified) was tested, and the TGI was > 100 µM. `COc1cnc2c(c1)C(=O)c1c-2n(CCCNC2=NCCS2)c(=O)c2cc([N+](=O)[O-])ccc12` was tested, and the GI50 was 0.0329 µM and the TGI was 1.81 µM. For `COc1ccc(OCC(=O)O)c2c1CCCC2=O`, the TGI was > 100 µM. `Cc1nc(Nc2ccc(Cl)cc2)sc1C(=O)NNC(=S)NN` gave a TGI of 64.3 µM. For `COc1ccc2c(c1OCC(=O)O)C(=O)C(CCC(=O)O)CC2` (stereo unspecified), the TGI was > 100 µM. In the case of `Cc1ccc2nc(/C(=C/c3ccc(/C=C(\NC(=O)c4ccccc4)c4nc5ccc(C)cc5[nH]4)c(C)c3)NC(=O)c3ccccc3)[nH]c2c1`, the TGI is reported as > 100 µM. With `COC1C(OC(=S)Nc2ccccc2)c2ccccc2N1C(C)=O` (stereo unspecified) the TGI was > 100 µM. For `Cc1nc(Nc2cccnc2)sc1C(=O)/C=C/c1ccc(F)cc1`, the GI50 was 3.42 µM and the TGI was 67.1 µM. Compound `CC1=Cc2cccc(C)c2C(=O)C1=O` has a TGI of 29.9 µM. `Cc1ccc(C)c(NC(=O)c2cccc([N+](=O)[O-])c2O)c1` was tested, and the TGI was 63.8 µM. For `On1c(-c2ccccc2)c(-c2ccccc2N2CCCC2)c2ccccc21`, the TGI was > 100 µM. In the case of `CC(C)(C)c1cc(C(P(=O)(O)O)P(=O)(O)O)cc(C(C)(C)C)c1O`, the TGI is reported as > 100 µM. With `CC(C)C1=Cc2ccc3c(c2C(=O)C1=O)CCCC3(C)C` the TGI was 29.3 µM. With `CSc1nc(SC)c2c(C#N)[nH]nc2n1` the TGI was > 100 µM. `COc1c(O)c2c(=O)cc3c4c5c(cc(=O)c6c(O)c(OC)c(CC(C)O)c(c(c1CC(C)O)c24)c65)OCO3` (stereo unspecified) showed a TGI of 7.56 µM. With `COc1ccc(CCN(C)C2CCC(C#N)(c3ccc(OC)c(OC)c3)CC2)cc1OC` (stereo unspecified) the TGI was > 100 µM. In the case of `C/C(CC(=O)Nc1ccc(C)c(C)c1)=N\N(c1ccccc1)c1ccccc1`, the TGI is reported as > 100 µM. With `COC(=O)/C(=N\NC(N)=S)C(C(=O)OC)C(=O)C(=O)Nc1ccc(C)cc1` (stereo unspecified) the TGI was > 100 µM. For `O=C1CCC2(c3ccc(Cl)cc3)Nc3cc(Cl)ccc3N12` (stereo unspecified), the TGI was 27.7 µM. `O=C(/C(=C/c1ccc(Cl)cc1)c1ccccc1)c1ccccc1` gave a TGI of 69.4 µM. For `CC1(C)COC(c2cccc3c2C(=O)c2cccc(Cl)c2-3)=N1`, the TGI was > 100 µM.
